Results from patent publication US12097210B2, “Concomitant administration of glucocorticoid receptor modulators and CYP3A inhibitors” (Corcept Therapeutics, Inc., priority 2017, dated 2024).

Key:
[1] = Examples 5-8: liver function of patient with excess cortisol on ketoconazole and reduced mifepristone dose; type: in vivo, human
[2] = Example 2: effect of a 400 mg single dose of ketoconazole on PK of an 8-day regimen of 300 mg or 600 mg OD mifepristone after moderate fat breakfast; type: in vivo, human; details: for increase in AUC0-24, Day 8 relative to Day 7 / increase in Cmax, Day 8 relative to Day 7: 400 mg ketoconazole on Day 8
Procedure: This was an open-label study in healthy male subjects. […] The 400 mg single dose of ketoconazole was given to all subjects on day 8.
METHODOLOGY: Twelve subjects were enrolled, six in Cohort 1 and 6 in Cohort 2.
Subjects were discharged on Day 11.
Subjects were discharged on Day 11. Subjects in both cohorts returned to study center on Day 13 for safety monitoring, collection of the 120-hour PK draw, and completion of the Termination Visit procedures, followed by discharge from the study. To the extent possible, any adverse events deemed study drug-related and that were ongoing at the time of discharge from the study were followed-up to resolution or until a determination was made that the unresolved event was stable.
DIAGNOSIS AND MAIN […] FOR INCLUSION: Healthy male volunteers between the ages of 18 to 45 years of age with a body mass index (BMI) ranging between 19 and 32 kg/m2 and a weight of at least 60 kg (132 lbs) were enrolled. Subjects had no clinically significant abnormal findings on the physical examination, ECG, blood pressure, heart rate, medical history, or clinical laboratory results during screening. The QTc interval at screening was less than 450 msec.
DURATION OF TREATMENT: Up to a total of 28 days, including up to 2 weeks screening, dosing on Days 1-8, safety observation, and PK sample collection through Day 13.
Additionally, comparisons were made between the PK results of cohort 1 and 2. Pharmacokinetic parameters Cmax, T½ and total AUC were calculated for plasma concentrations of ketoconazole following the single dose on Day 8. Descriptive statistics (count, mean, median, standard deviation, minimum, maximum, and % coefficient of variation) were provided. Ketoconazole concentrations were listed and summarized. GM means of Cmax and total AUC were compared for the single dose in this study to the combined data of reported 400 mg single doses of ketoconazole of healthy subjects from the literature.

[3] = MIFE 300 mg/d with vs without 400 mg Keto
[4] = MIFE 600 mg/d with vs without 400 mg Keto
[5] = MIFE 600 vs 300 mg/d, no ketoconazole
[6] = MIFE 600 vs 300 mg/d, with 400 mg Keto

Compound: CC#C[C@]1(O)CC[C@H]2[C@@H]3CCC4=CC(=O)CCC4=C3[C@@H](c3ccc(N(C)C)cc3)C[C@@]21C [Mifepristone, 11β-(4-dimethylaminophenyl)-17β-hydroxy-17α-(1-propynyl)-estra-4,9-dien-3-one]
- liver function of the patient ([1]; Example 5: mifepristone reduced from 1200 mg to 900 mg daily with ketoconazole): not significantly compromised
- liver function of the patient ([1]; Example 6: mifepristone reduced from 900 mg to 600 mg daily with ketoconazole): not significantly compromised
- liver function of the patient ([1]; Example 7: mifepristone reduced from 600 mg to 300 mg daily with ketoconazole): not significantly compromised
- liver function of the patient ([1]; Example 8: mifepristone reduced from 1500 mg to 1200 mg daily with ketoconazole): not significantly compromised
- increase in AUC0-24, Day 8 relative to Day 7 ([2]; Cohort 1, 300 mg OD): 25%
- increase in Cmax, Day 8 relative to Day 7 ([2]; Cohort 1, 300 mg OD): 20%
- increase in AUC0-24, Day 8 relative to Day 7 ([2]; Cohort 2, 600 mg OD): 28%
- increase in Cmax, Day 8 relative to Day 7 ([2]; Cohort 2, 600 mg OD): 39%
- AUC0-24 greater at 600 mg OD than at 300 mg OD ([2]; Day 8 with 400 mg ketoconazole): 52%
- Cmax greater at 600 mg OD than at 300 mg OD ([2]; Day 8 with 400 mg ketoconazole): 65%
- half-life greater at 600 mg OD than at 300 mg OD ([2]; Day 8 with 400 mg ketoconazole): 13%
- Mean Ratio AUCτ, C1 Day 8/Day 7 [2, 3]: 1.25
- Mean Ratio Cmax, C1 Day 8/Day 7 [2, 3]: 1.19
- Mean Ratio AUCτ, C2 Day 8/Day 7 [2, 4]: 1.28
- Mean Ratio Cmax, C2 Day 8/Day 7 [2, 4]: 1.39
- Mean Ratio AUCτ, Day 7 C2/C1 [2, 5]: 1.48
- Mean Ratio Cmax, Day 7 C2/C1 [2, 5]: 1.42
- Mean Ratio AUCτ, Day 8 C2/C1 [2, 6]: 1.52
- Mean Ratio Cmax, Day 8 C2/C1 [2, 6]: 1.65
